Among the data in ChEMBL document CHEMBL1201862, “PubChem BioAssay data set” (2004) are AC50 and EC50 values, retold here.

One experiment concerns the target Cytochrome P450 3A4 (Homo sapiens, UniProt P08684).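 Note: CYP3A4 tested as one member of a cytochrome P450 panel screen.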
Experiment [1] is described as follows: inhibitors of intracellular T. cruzi replication, confirmation, NIH3T3 host cells, beta-gal luminescence (AID 2044).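 Note: intracellular parasites grown in NIH/3T3 mouse fibroblasts as host cells; luminescent beta-galactosidase reporter signal from transgenic T. cruzi replicating inside host cells; inhibitors lower the luminescence signal.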 It is filed as functional, cell-based.
A short description of experiment [2]: cytotoxicity toward NIH3T3 fibroblasts, dose response, counter-screen, cell-based, ATP luminescence, mouse fibroblasts (AID 2010).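 Note: cells exposed to compound for about 90 hours before reading.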 In kind it is functional. (Counterscreens check selectivity or assay interference.)
A further experiment addresses Cytochrome P450 2C9 (Homo sapiens, UniProt P11712).
Experiment [3] has as its system Streptococcus sp. 'group A'. Nature of the experiment: growth inhibition of control SK(-) GAS strain, dose response, counter-screen for streptokinase expression inhibitor project, luminescence, kanamycin, BacTiterGlo, confirmation (AID 1900). In kind it is functional, organism-based.
A further experiment deals with Streptococcus. Nature of the experiment: Group A Streptococcus viability loss, dose response, counter-screen for streptokinase expression inhibitor project, luminescence, BacTiterGlo (AID 1915).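 Note: potency for reduction of bacterial viability or growth.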 In kind it is functional, organism-based.

Activity calls are given as the source filed them. Cut-off read from the data, not from the text of the source, for most assays here: actives have a measured EC50 and inactives only a lower limit.

Chain of Cytochrome P450 2C9 (P11712 whole entry): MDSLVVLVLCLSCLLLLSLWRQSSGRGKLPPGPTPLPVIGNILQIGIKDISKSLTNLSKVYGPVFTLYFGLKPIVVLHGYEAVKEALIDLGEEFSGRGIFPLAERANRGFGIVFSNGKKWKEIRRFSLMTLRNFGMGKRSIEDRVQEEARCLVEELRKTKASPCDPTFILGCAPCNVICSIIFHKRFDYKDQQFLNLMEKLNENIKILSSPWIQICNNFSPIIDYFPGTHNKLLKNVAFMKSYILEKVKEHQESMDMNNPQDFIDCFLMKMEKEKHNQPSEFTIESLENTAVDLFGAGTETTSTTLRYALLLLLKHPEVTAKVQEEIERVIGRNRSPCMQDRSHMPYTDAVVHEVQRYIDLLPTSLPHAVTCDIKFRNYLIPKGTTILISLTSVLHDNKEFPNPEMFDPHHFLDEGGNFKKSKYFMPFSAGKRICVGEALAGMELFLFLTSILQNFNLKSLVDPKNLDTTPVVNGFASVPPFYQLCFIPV
Chain of Cytochrome P450 3A4 (P08684 whole entry): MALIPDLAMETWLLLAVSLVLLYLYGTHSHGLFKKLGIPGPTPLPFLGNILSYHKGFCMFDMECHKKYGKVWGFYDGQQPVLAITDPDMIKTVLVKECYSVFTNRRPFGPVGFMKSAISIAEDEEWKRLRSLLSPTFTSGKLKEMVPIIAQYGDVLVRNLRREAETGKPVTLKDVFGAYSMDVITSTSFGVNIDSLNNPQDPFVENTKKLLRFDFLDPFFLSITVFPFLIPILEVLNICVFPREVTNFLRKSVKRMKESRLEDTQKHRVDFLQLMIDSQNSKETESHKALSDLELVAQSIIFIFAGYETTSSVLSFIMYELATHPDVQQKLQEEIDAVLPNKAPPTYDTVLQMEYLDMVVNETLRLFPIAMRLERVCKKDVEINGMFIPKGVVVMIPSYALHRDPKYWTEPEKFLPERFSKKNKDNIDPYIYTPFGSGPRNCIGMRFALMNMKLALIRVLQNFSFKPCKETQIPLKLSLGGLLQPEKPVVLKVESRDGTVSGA

Usually AC50 stands for the midpoint of the concentration-response curve, whichever way the signal moves. With `C[N+](C)(CCCCCC[N+](C)(C)CCCN1C(=O)c2cccc3cccc(c23)C1=O)CCCN1C(=O)c2cccc3cccc(c23)C1=O`, at Cytochrome P450 3A4, the AC50 was 2.51 µM (inconclusive). For orientation: EC50 means the concentration that produces a half-maximal response. As for `CC(=O)c1ccc(N2CCN(C(=O)c3ccc(Cn4c(=S)[nH]c5ccc(N6CCOCC6)cc5c4=O)cc3)CC2)cc1`, the values for the EC50 in experiment [1] and in experiment [2] were 1.07 µM (active) and > 60 µM (not active), respectively. Regarding `Cc1ccc(OCCNC(=O)c2cncc(Br)c2)cc1C`, the half-maximal activity concentration (AC50) on Cytochrome P450 2C9 is 25.1 µM (inconclusive). Consider `COCCNc1nc(-c2ccoc2)nc2ccccc12`, for which, on Cytochrome P450 3A4, the AC50 was 12.6 µM (inconclusive). As for `C=CCOc1c(Br)cc(CNCCCN2CCOCC2)cc1OC`, the figures for the EC50 in experiment [1] and in experiment [2] were 0.521 µM (active) and 22.9 µM (active), respectively. In the case of `COc1ccc(-n2c(=O)c(CCc3ccccc3)nc3cnc(N4CCN(C)CC4)nc32)cc1`, the AC50 on Cytochrome P450 3A4 was 12.6 µM (inconclusive). As for `CCN(CC)CCN(C(=O)c1ccc2c(c1)CCCC2)c1nc2ccc(F)cc2s1`, the half-maximal effective concentration (EC50) in experiment [1] is 0.818 µM (active); in experiment [2] it was > 60 µM (not active). Turning to `CC(=O)N1CCc2cc(Br)cc(S(=O)(=O)N3CCN(C(=O)c4ccco4)CC3)c21`, the AC50 at Cytochrome P450 3A4 was 15.8 µM (inconclusive). `COC(=O)c1ccc(C2Nc3cccc4cccc(c34)N2)cc1`: the EC50 is 6.1 µM (active) in experiment [1] and > 60 µM (not active) in experiment [2].

`CN(CCc1ccccn1)Cc1ccc(Cl)cc1`: the 50% effective concentration (EC50) was 0.221 µM (active) in experiment [1] and > 60 µM (not active) in experiment [2]. Taken in the same sequence, the figures for `O=C(COc1ccccc1)NC(=S)Nc1ccc2c(c1)Cc1ccccc1-2` were 0.641 µM (active) and > 60 µM (not active). In the case of `Fc1ccccc1Cc1noc(CN2CCN(C/C=C/c3ccccc3)CC2)n1`, the half-maximal effective concentration (EC50) is 0.443 µM (active) in experiment [1] and > 60 µM (inconclusive) in experiment [2]. Taken in the same sequence, the figures for `O=C1CC(SC(=Nc2ccccc2)Nc2ccccc2)C(=O)N1c1ccc(Cl)c(Cl)c1` (centres undefined) were 2.06 µM (active) and > 60 µM (inconclusive). Regarding `Cc1nc2ccccn2c1C(=O)C1=C(O)C(=O)N(CCCn2ccnc2)C1c1ccncc1` (centres undefined), at Cytochrome P450 2C9, the half-maximal activity concentration (AC50) is 11.2 µM (inconclusive).

For `Cc1ccc(S(=O)(=O)NCC(c2cccnc2)N2CCN(Cc3ccccc3)CC2)cc1` (centres undefined), the values for the EC50 in experiment [1] and in experiment [2] were 0.732 µM (active) and > 60 µM (not active), respectively. As to `CCNc1nc(Sc2ccc(C)cc2)cc(C(F)(F)F)n1`, the concentration at half-maximal activity (AC50) on Cytochrome P450 3A4 is 22.4 µM (inconclusive). For `CCC(c1nnnn1CS(=O)(=O)c1ccc(C)cc1)N1CCN(c2nc3ccccc3s2)CC1` (centres undefined), the 50% effective concentration (EC50) in experiment [1] was 0.861 µM (active); in experiment [2], > 30 µM (not active).

Turning to `CC[C@H](Cc1c(I)cc(I)c(N)c1I)C(=O)O`, on Cytochrome P450 2C9, the concentration at half-maximal activity (AC50) was 6.31 µM (inconclusive). Regarding `COc1ccc(N2CCN(C(=O)c3ccc(Cn4c(=S)[nH]c5ccc(N6CCOCC6)cc5c4=O)cc3)CC2)cc1`, the results for the EC50 in experiment [1] and in experiment [2] were 0.684 µM (active) and > 30 µM (not active), respectively. On the same counts, the results for `C=CCNCCOCCOc1ccc(C)cc1Br` are 3.36 µM (active) and > 60 µM (not active). As to `CCOc1ccc(C(CC(=O)O)NC(=O)COc2ccccc2)cc1` (centres undefined), on Cytochrome P450 2C9, the concentration at half-maximal activity (AC50) is 39.8 µM (inconclusive). In the case of `CC(COc1cccc2ccccc12)CN1CCN(C)CC1` (centres undefined), the EC50 was 0.284 µM (active) in experiment [1] and > 30 µM (not active) in experiment [2]. For the compound `CCOC(=O)C1CCCN(C/C=C/c2ccccc2[N+](=O)[O-])C1` (centres undefined), the AC50 at Cytochrome P450 3A4 was 25.1 µM (inconclusive); on Cytochrome P450 2C9, 15.8 µM (inconclusive).

Regarding `CCCCn1c(=O)c(C(=O)Nc2ccccn2)c(O)c2ccccc21`, the results for the concentration for a half-maximal effect (EC50) (in experiment [3]; with Streptococcus) were 3.64 µM (active) and 19.2 µM (active), respectively. Consider `COc1cccc(CN2CCN(Cc3c(C)nn(C(C)C)c3C)CC2CCO)c1` (centres undefined), for which the concentration for a half-maximal effect (EC50) in experiment [1] was 1.14 µM (active); in experiment [2], > 60 µM (not active). Regarding `CC(C)c1cccc(OCCCCN(C)C)c1`, the EC50 in experiment [1] is 0.587 µM (active); in experiment [2], > 60 µM (not active).

With `CC(C)NC(=O)N1CC[C@@]2(CCCN(S(=O)(=O)c3ccccc3)C2)C1`, the concentration at half-maximal activity (AC50) on Cytochrome P450 3A4 is 20 µM (inconclusive). Take `COc1c(C)cc(Br)cc1C(=O)Nc1ccc(Cc2ccncc2)cc1`: the EC50 in experiment [1] is 2.16 µM (active); in experiment [2] it was > 60 µM (not active).

`CCOc1ccc(-c2nnc3n2N=C(c2ccc(OC)cc2)CS3)cc1`: the AC50 at Cytochrome P450 2C9 is 2.51 µM (inconclusive). Take `COc1ccc(/C=C/C(=O)NC(=S)NNC(=O)c2cc(OC)c(OC)c(OC)c2)cc1`: the EC50 in experiment [3] is 1.38 µM (active); in the experiment with Streptococcus, 3.48 µM (active). On to `Cc1nn(CC(N)=O)c(=O)c2ccccc12`, for which the figures for the 50% effective concentration (EC50) in experiment [1] and in experiment [2] were 0.903 µM (active) and > 30 µM (not active), respectively. `Cc1cnc(CNc2ccnc(-c3ccc(N(C)C)cc3)n2)cn1`: at Cytochrome P450 3A4, the half-maximal activity concentration (AC50) was 10 µM (inconclusive). On to `CCCCn1c2ccc(F)cc2c2nnc(SCCN3CCCCC3)nc21`, for which the figures for the EC50 in experiment [1] and in experiment [2] were 0.681 µM (active) and > 60 µM (not active), respectively. Turning to `O=C(NCC1CCCO1)C(c1cccs1)N(Cc1ccccc1Cl)C(=O)c1ccc(-c2ccccc2)[nH]1` (centres undefined), the EC50 is 2.96 µM (active) in experiment [1] and > 30 µM (not active) in experiment [2].

Consider `CCOC(=O)N(c1ccccc1)P1(=S)OCCO1`, for which the half-maximal activity concentration (AC50) at Cytochrome P450 2C9 is 0.0355 µM (inconclusive). Take `COc1ccc(C(=O)C2CCCN(Cc3cccc4c3OCO4)C2)cc1OC` (centres undefined): the EC50 in experiment [1] is 0.576 µM (active); in experiment [2], 12.4 µM (active). With `O=C(NC1CCCC1)c1cnn2c(C(F)(F)F)cc(-c3ccco3)nc12`, at Cytochrome P450 2C9, the concentration at half-maximal activity (AC50) is 22.4 µM (inconclusive).

In the case of `O=C(Nc1nc(-c2ccc(F)cc2)cs1)C1CCN(C(=O)c2ccc(F)cc2)CC1`, the results for the half-maximal effective concentration (EC50) in experiment [1] and in experiment [2] were 4.57 µM (active) and > 60 µM (not active), respectively. Take `O=c1c(-c2ccc(F)c(F)c2)nc2cncnc2n1Cc1ccccc1Cl`: the AC50 at Cytochrome P450 3A4 was 12.6 µM (inconclusive).

In the case of `Cn1c(=O)c2c(nc(N3CCN(c4ccccn4)CC3)n2Cc2ccccc2Cl)n(C)c1=O`, the half-maximal activity concentration (AC50) on Cytochrome P450 3A4 is 1.26 µM (inconclusive).

For `O=C(c1cc(-c2cccs2)on1)N1CCN(c2ccc(F)cc2)CC1`, the AC50 at Cytochrome P450 3A4 was 20 µM (inconclusive).

As to `Cc1ccc(SCCN2CCN(C)CC2)cc1`, the figures for the half-maximal effective concentration (EC50) in experiment [1] and in experiment [2] were 0.852 µM (active) and 10.3 µM (active), respectively.

In the case of `COc1cc(S(=O)(=O)N2CCC(O)(c3cccc(C(F)(F)F)c3)CC2)ccc1-n1cnnn1`, the values for the EC50 in experiment [1] and in experiment [2] were 2.61 µM (active) and > 60 µM (not active), respectively. In the case of `CCO/C(O)=C/C1=NC2(CCCCC2)Cc2cc(OC)c(OC)cc21`, the concentration giving a half-maximal response (EC50) in experiment [1] was 2.2 µM (active); in experiment [2] it was > 60 µM (not active). In the case of `COC(=O)N1CCC2(CCCN(c3ccc(-c4ccccc4)cc3)C2)CC1`, the AC50 on Cytochrome P450 3A4 is 39.8 µM (inconclusive). On the same count and under the same terms, with `Cc1cnc2cc(Cl)ccc2c1SCC(=O)O` the figure was 3.98 µM (inconclusive). `COc1cc(OC)c(C2C(C(=O)Nc3ccc(C)cc3C)=C(C)Nc3ncnn32)cc1OC` (centres undefined): the AC50 at Cytochrome P450 2C9 is 15.8 µM (inconclusive). With `Cc1oc(-c2cccc(Cl)c2)nc1CN1CCCC(C(=O)NCCCN2CCOCC2)C1` (centres undefined), the values for the EC50 in experiment [1] and in experiment [2] were 0.234 µM (active) and > 60 µM (not active), respectively. On the same counts, the results for `CCN(CC)P(=O)(Nc1ccccc1Br)c1ccc(N(C)C)cc1NC(=O)c1ccco1` (centres undefined) are 1.95 µM (active) and > 60 µM (not active). As to `N#CC(C(=O)OC1CCCCC1)c1nc2ccccc2nc1N1CCCCC1` (centres undefined), the EC50 in experiment [1] is 1.01 µM (active); in experiment [2], 8.74 µM (active). With `Cc1nc2cnc(OCc3ccccc3)nc2n(CCC#N)c1=O`, the half-maximal activity concentration (AC50) on Cytochrome P450 3A4 was 3.98 µM (inconclusive). For the compound `O=C(c1csnn1)N1CCC2(CC1)CN(Cc1ccncc1)C2`, at Cytochrome P450 3A4, the AC50 was 15.8 µM (inconclusive). As to `CCNc1ncc2nc(-c3ccccc3)c(=O)n(CCC#N)c2n1`, on Cytochrome P450 3A4, the AC50 was 25.1 µM (inconclusive). Consider `O=C1C2C(c3ccccc3)CC=CC2[C@H](c2cccc([N+](=O)[O-])c2)N1Cc1ccccc1` (some centres undefined), for which the EC50 in experiment [1] was 2.17 µM (active); in experiment [2], > 60 µM (not active). On to `COc1ccccc1CNc1ncncc1-c1ccccc1C`, for which the AC50 at Cytochrome P450 3A4 is 0.398 µM (inconclusive). `CC(C)OC(=O)c1cn(-c2ccccc2)nc1-c1ccco1`: the values for the concentration giving a half-maximal response (EC50) in experiment [1] and in experiment [2] were 1.61 µM (active) and 31.6 µM (active), respectively. In the case of `CCCCCCCCCCCCCCCCCCNC(=O)OC[C@@H](COP(=O)([O-])OCC[n+]1ccsc1)OC`, the half-maximal activity concentration (AC50) on Cytochrome P450 2C9 is 39.8 µM (inconclusive).

Take `CSc1cc2c(cc1C(F)(F)F)N(C(=O)Nc1cccnc1)CC2`: the half-maximal activity concentration (AC50) on Cytochrome P450 3A4 was 3.98 µM (inconclusive). As to `Cc1nn(Cc2ccc(F)cc2)c(Cl)c1/C=N/NC(=O)c1ccccc1`, the half-maximal effective concentration (EC50) in experiment [1] was 2.67 µM (active); in experiment [2], > 60 µM (not active). On the same counts, the results for `O=C(N/N=C\c1cccc(F)c1)c1ccc(Cn2cc(Br)c([N+](=O)[O-])n2)o1` are 0.889 µM (active) and > 60 µM (not active). As to `Nc1c(S(=O)(=O)O)cc(Nc2cccc(S(N)(=O)=O)c2)c2c1C(=O)c1ccccc1C2=O`, the AC50 at Cytochrome P450 3A4 was 7.94 µM (inconclusive). As for `CN1/C(=C/c2cccc[n+]2C)Sc2ccccc21`, the half-maximal effective concentration (EC50) was 0.185 µM (active) in experiment [1] and > 60 µM (not active) in experiment [2]. Take `CCOC(=O)CCC(=O)O[C@H]1[C@H](O[C@@H]2[C@@H](C)[C@H](O[C@H]3C[C@@](C)(OC)[C@@H](O)[C@H](C)O3)[C@@H](C)C(=O)O[C@H](CC)[C@@](C)(O)[C@H](O)[C@@H](C)C(=O)[C@H](C)C[C@@]2(C)O)O[C@H](C)C[C@@H]1N(C)C` [ERYTHROMYCIN ETHYLSUCCINATE]: the half-maximal effective concentration (EC50) (in experiment [3]; in the experiment with Streptococcus) was < 0.06 µM (active) in each case.
